Source: ChEMBL document CHEMBL1240318, “Developing a new resource for drug discovery: marine actinomycete bacteria” (2006)
Converted amounts (≈) assume the structure as drawn.

Tests used:
Format in all cases: functional
SK-MEL-5 = experiment: Antitumor activity against human SK-MEL-5 cells; conditions: read-out: LC50 (the source's name)
Candida albicans = experiment: Antimicrobial activity against amphotericin-resistant Candida albicans
Staphylococcus aureus = experiment: Antimicrobial activity against methicillin-resistant Staphylococcus aureus assessed as growth inhibition
Enterococcus faecium = experiment: Antimicrobial activity against vancomycin-resistant Enterococcus faecium assessed as growth inhibition

C\C1=C/C=C/C=C/C=C/c2cccc(O)c2C(=O)O[C@@H](C[C@@H](C)O)C[C@@H](O)C/C=C/[C@@H](O)C[C@@H](O)CC(C)/C=C/C=C/C=C/C=C/c2cccc(O)c2C(=O)O[C@@H](C[C@@H](C)O)C[C@@H](O)C/C=C/[C@@H](O)C[C@@H](O)C1 (some centres undefined) [MARINOMYCIN A]
CC50 (SK-MEL-5): 5 nM
MIC90 (Candida albicans): 7.8 µM (≈ 7.89 µg/mL)
MIC (Staphylococcus aureus): 0.1 µM (≈ 0.101 µg/mL)
MIC (Enterococcus faecium): 0.1 µM (≈ 0.101 µg/mL)
